In US8741906B2 (priority 2011, dated 2014) one finds EC50 data, which are given here for 30 compounds.

Each structure is given as a SMILES string. Read-outs that look alike come from different tables or passages of the source.

Assay [1] concerns the target T1, human CB2 receptors (Homo sapiens, UniProt P34972).
T1 construct: expressed in transfected cells; host or cells: CHO cells
The experiment in a line: functional cAMP assay, human CB2. In kind it is cell-based. An outline of the steps: (§1)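 Cells are seeded 17-24 h ahead, then preincubated in Krebs Ringer bicarbonate buffer with 1 mM IBMX at 30 °C. Compounds act for 30 min at 30 °C, after which lysis and cAMP detection reagents are added for 2 h at room temperature. Time-resolved FRET gives cAMP content, and EC50 values are fitted from it.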

The target of assay [2] is T2, human CB1 receptors (Homo sapiens, UniProt P21554).
T2 construct: expressed in transfected cells; host or cells: CHO cells
The experiment in a line: functional cAMP assay, human CB1. In kind it is cell-based. A digest of the protocol:
as §1

Setting [3] is: CHO cells expressing human CB2, cAMP, read-out: human CB2 EC50.
Where [4] appears, read: CHO cells expressing human CB1, cAMP, read-out: human CB1 EC50.

T2 sequence (P21554 whole entry): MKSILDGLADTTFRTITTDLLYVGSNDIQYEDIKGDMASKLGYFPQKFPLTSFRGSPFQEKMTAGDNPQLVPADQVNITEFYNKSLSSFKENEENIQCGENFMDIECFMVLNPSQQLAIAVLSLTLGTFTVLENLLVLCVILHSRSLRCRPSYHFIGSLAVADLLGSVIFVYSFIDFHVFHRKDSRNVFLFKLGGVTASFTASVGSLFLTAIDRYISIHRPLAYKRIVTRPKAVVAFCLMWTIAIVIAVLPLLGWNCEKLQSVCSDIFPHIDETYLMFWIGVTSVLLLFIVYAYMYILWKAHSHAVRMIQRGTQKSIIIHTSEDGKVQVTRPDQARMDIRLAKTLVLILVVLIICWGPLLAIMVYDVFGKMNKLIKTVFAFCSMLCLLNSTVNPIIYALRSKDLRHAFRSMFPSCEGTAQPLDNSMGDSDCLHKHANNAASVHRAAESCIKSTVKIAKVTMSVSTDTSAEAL
T1 sequence (P34972 whole entry): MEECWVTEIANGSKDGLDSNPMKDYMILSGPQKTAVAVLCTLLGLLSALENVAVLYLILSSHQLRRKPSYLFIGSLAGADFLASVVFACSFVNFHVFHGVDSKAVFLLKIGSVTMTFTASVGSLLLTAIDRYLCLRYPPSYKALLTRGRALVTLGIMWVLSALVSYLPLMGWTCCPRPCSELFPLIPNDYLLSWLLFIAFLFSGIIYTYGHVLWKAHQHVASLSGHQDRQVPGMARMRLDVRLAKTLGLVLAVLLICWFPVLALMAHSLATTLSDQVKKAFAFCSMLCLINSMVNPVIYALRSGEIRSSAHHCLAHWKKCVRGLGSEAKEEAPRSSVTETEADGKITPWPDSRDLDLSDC

As for `Cn1nccc1C1CCCN1c1nc(C(C)(C)C)nc2c1nnn2Cc1ccccc1Cl` (stereo not drawn) [Example 201, 5-tert-Butyl-3-(2-chloro-benzyl)-7-[2-(2-methyl-2H-pyrazol-3-yl)-pyrrolidin-1-yl]-3H-[1,2,3]triazolo[4,5-d]pyrimidine], the EC50 in assay [1] (setting [3]) was 65.7 nM; in assay [2] (setting [4]), greater than 10000 nM.
The matching figures for `Cc1cc(C2CCCN2c2nc(C(C)(C)C)nc3c2nnn3Cc2ccccc2Cl)on1` (stereo not drawn) [Example 202, 5-tert-Butyl-3-(2-chloro-benzyl)-7-[2-(3-methyl-isoxazol-5-yl)-pyrrolidin-1-yl]-3H-[1,2,3]triazolo[4,5-d]pyrimidine]: 86.8 nM and greater than 10000 nM.
In the same order, the values of `Cc1noc(C2CCCN2c2nc(C(C)(C)C)nc3c2nnn3Cc2ccccc2Cl)n1` (stereo not drawn) [Example 203, 5-tert-Butyl-3-(2-chloro-benzyl)-7-[2-(3-methyl-[1,2,4]oxadiazol-5-yl)-pyrrolidin-1-yl]-3H-[1,2,3]triazolo[4,5-d]pyrimidine] are 53.1 nM and greater than 10000 nM.
In the same order, the values of `CC(C)(C)c1nc(N2CCC(O)C2)c2nnn(Cc3ccccc3Cl)c2n1` (stereo not drawn) [Example 204, 1-[5-tert-Butyl-3-(2-chloro-benzyl)-3H-[1,2,3]triazolo[4,5-d]pyrimidin-7-yl]-pyrrolidin-3-ol] are 0.5 nM and greater than 10000 nM.
With `CC(C)(C)c1nc(OC2CCC2)c2nnn(Cc3ccccc3Cl)c2n1` [Example 205, 5-tert-Butyl-3-(2-chloro-benzyl)-7-cyclobutoxy-3H-[1,2,3]triazolo[4,5-d]pyrimidine], the half-maximal effective concentration (EC50) in assay [1] (setting [3]) was 12.2 nM; in assay [2] (setting [4]), greater than 10000 nM.
In the same order, the values of `CC(C)(C)c1nc(OC2COC2)c2nnn(Cc3ccccc3Cl)c2n1` [Example 206, 5-tert-Butyl-3-(2-chloro-benzyl)-7-(oxetan-3-yloxy)-3H-[1,2,3]triazolo[4,5-d]pyrimidine] are 11.3 nM and greater than 10000 nM.
The matching figures for `COc1nc(C(C)(C)C)nc2c1nnn2Cc1ccccc1Cl` [Example 207, 5-tert-Butyl-3-(2-chloro-benzyl)-7-methoxy-3H-[1,2,3]triazolo[4,5-d]pyrimidine]: 68 nM and greater than 10000 nM.
In the same order, the values of `CCOc1nc(C(C)(C)C)nc2c1nnn2Cc1ccccc1Cl` [Example 208, 5-tert-Butyl-3-(2-chloro-benzyl)-7-ethoxy-3H-[1,2,3]triazolo[4,5-d]pyrimidine] are 9.2 nM and greater than 10000 nM.
On to `CC(C)Oc1nc(C(C)(C)C)nc2c1nnn2Cc1ccccc1Cl` [Example 209, 5-tert-Butyl-3-(2-chloro-benzyl)-7-isopropoxy-3H-[1,2,3]triazolo[4,5-d]pyrimidine], for which the EC50 in assay [1] (setting [3]) is 16 nM; in assay [2] (setting [4]), greater than 10000 nM.
Consider `CC(C)(C)c1nc(OCC2CC2)c2nnn(Cc3ccccc3Cl)c2n1` [Example 210, 5-tert-Butyl-3-(2-chloro-benzyl)-7-cyclopropylmethoxy-3H-[1,2,3]triazolo[4,5-d]pyrimidine], for which the 50% effective concentration (EC50) is 16.7 nM in assay [1] (setting [3]) and greater than 10000 nM in assay [2] (setting [4]).
The matching figures for `CC(Oc1nc(C(C)(C)C)nc2c1nnn2Cc1ccccc1Cl)C1CC1` (stereo not drawn) [Example 211, 5-tert-Butyl-3-(2-chloro-benzyl)-7-(1-cyclopropyl-ethoxy)-3H-[1,2,3]triazolo[4,5-d]pyrimidine]: 98.6 nM and greater than 10000 nM.
In the same order, the values of `CC(C)(C)c1nc(OC2CCCC2)c2nnn(Cc3ccccc3Cl)c2n1` [Example 212, 5-tert-Butyl-3-(2-chloro-benzyl)-7-cyclopentyloxy-3H-[1,2,3]triazolo[4,5-d]pyrimidine] are 22 nM and greater than 10000 nM.
The matching figures for `CC(C)(C)COc1nc(C(C)(C)C)nc2c1nnn2Cc1ccccc1Cl` [Example 213, 5-tert-Butyl-3-(2-chloro-benzyl)-7-(2,2-dimethyl-propoxy)-3H-[1,2,3]triazolo[4,5-d]pyrimidine]: 59.6 nM and greater than 10000 nM.
As to `CC(Oc1nc(C(C)(C)C)nc2c1nnn2Cc1ccccc1Cl)C(F)(F)F` (stereo not drawn) [Example 214, 5-tert-Butyl-3-(2-chloro-benzyl)-7-(2,2,2-trifluoro-1-methyl-ethoxy)-3H-[1,2,3]triazolo[4,5-d]pyrimidine], the EC50 in assay [1] (setting [3]) was 9.4 nM; in assay [2] (setting [4]), greater than 10000 nM.
In the same order, the values of `C[C@H](Oc1nc(C(C)(C)C)nc2c1nnn2Cc1ccccc1Cl)C(F)(F)F` [Example 215, 5-tert-Butyl-3-(2-chloro-benzyl)-7-((S)-2,2,2-trifluoro-1-methyl-ethoxy)-3H-[1,2,3]triazolo[4,5-d]pyrimidine] are 24.7 nM and greater than 10000 nM.
In the same order, the values of `C[C@@H](Oc1nc(C(C)(C)C)nc2c1nnn2Cc1ccccc1Cl)C(F)(F)F` [Example 216, 5-tert-Butyl-3-(2-chloro-benzyl)-7-((R)-2,2,2-trifluoro-1-methyl-ethoxy)-3H-[1,2,3]triazolo[4,5-d]pyrimidine] are 10.4 nM and greater than 10000 nM.
The matching figures for `CC(C)(C)c1nc(N2CC[C@H](O)C2)c2nnn(Cc3ccccc3)c2n1` [Example 217, (3S)-1-(3-benzyl-5-tert-butyl-triazolo[4,5-d]pyrimidin-7-yl)pyrrolidin-3-ol]: 3.3 nM and greater than 10000 nM.
On to `CC(C)(C)c1nc(N2CCC(O)C2)c2nnn(Cc3ccccc3Cl)c2n1` (stereo not drawn) [Example 218, 1-(5-tert-butyl-3-(2-chlorobenzyl)-3H-[1,2,3]triazolo[4,5-d]pyrimidin-7-yl)pyrrolidin-3-ol], for which the figures for the EC50 in assay [1] (setting [3]) and in assay [2] (setting [4]) were 0.5 nM and greater than 10000 nM, respectively.
As for `Cn1nnnc1Cn1nnc2c(N3CC[C@@H](O)C3)nc(C(C)(C)C)nc21` [Example 219, (R)-1-(5-tert-butyl-3-((1-methyl-1H-tetrazol-5-yl)methyl)-3H-[1,2,3]triazolo[4,5-d]pyrimidin-7-yl)pyrrolidin-3-ol], the EC50 in assay [1] was 32.9 nM; in assay [2], greater than 10000 nM.
The matching figures for `Cn1nnnc1Cn1nnc2c(N3CCC(O)C3)nc(C(C)(C)C)nc21` (stereo not drawn) [Example 220, 1-(5-tert-butyl-3-((1-methyl-1H-tetrazol-5-yl)methyl)-3H-[1,2,3]triazolo[4,5-d]pyrimidin-7-yl)pyrrolidin-3-ol]: 4.7 nM and greater than 10000 nM.
`CC(C)(C)c1nc(N2CC[C@](C)(O)C2)c2nnn(Cc3ccccc3Cl)c2n1` [Example 221-a, (S)-1-(5-tert-butyl-3-(2-chlorobenzyl)-3H-[1,2,3]triazolo[4,5-d]pyrimidin-7-yl)-3-methylpyrrolidin-3-ol]: the EC50 in assay [1] (setting [3]) stood at 3 nM; in assay [2] (setting [4]) it was 1800 nM.
In the same order, the values of `CC(C)(C)c1nc(N2CC[C@@](C)(O)C2)c2nnn(Cc3ccccc3Cl)c2n1` [Example 221-b, (R)-1-(5-tert-butyl-3-(2-chlorobenzyl)-3H-[1,2,3]triazolo[4,5-d]pyrimidin-7-yl)-3-methylpyrrolidin-3-ol] are 7 nM and 853 nM.
In the same order, the values of `CC(C)(C)c1nc(N2CC[C@](C)(O)C2)c2nnn(Cc3ccccc3C(F)(F)F)c2n1` [Example 222-a, (S)-1-(5-tert-butyl-3-(2-(trifluoromethyl)benzyl)-3H-[1,2,3]triazolo[4,5-d]pyrimidin-7-yl)-3-methylpyrrolidin-3-ol] are 0.8 nM and 894 nM.
In the same order, the values of `CC(C)(C)c1nc(N2CC[C@@](C)(O)C2)c2nnn(Cc3ccccc3C(F)(F)F)c2n1` [Example 222-b, (R)-1-(5-tert-butyl-3-(2-(trifluoromethyl)benzyl)-3H-[1,2,3]triazolo[4,5-d]pyrimidin-7-yl)-3-methylpyrrolidin-3-ol] are 5.2 nM and greater than 10000 nM.
As to `CC(C)(C)c1nc(N2CC[C@](C)(O)C2)c2nnn(Cc3ccccc3S(C)(=O)=O)c2n1` [Example 223-a, (S)-1-(5-tert-butyl-3-(2-(methylsulfonyl)benzyl)-3H-[1,2,3]triazolo[4,5-d]pyrimidin-7-yl)-3-methylpyrrolidin-3-ol], the EC50 was found to be 0.4 nM in assay [1] (setting [3]) and 241 nM in assay [2] (setting [4]).
The matching figures for `CC(C)(C)c1nc(N2CC[C@@](C)(O)C2)c2nnn(Cc3ccccc3S(C)(=O)=O)c2n1` [Example 223-b, (R)-1-(5-tert-butyl-3-(2-(methylsulfonyl)benzyl)-3H-[1,2,3]triazolo[4,5-d]pyrimidin-7-yl)-3-methylpyrrolidin-3-ol]: 3 nM and 246 nM.
The matching figures for `CC(C)(C)c1nc(N2CC[C@](C)(O)C2)c2nnn(Cc3ncccc3Cl)c2n1` [Example 224-a, (S)-1-(5-tert-butyl-3-((3-chloropyridin-2-yl)methyl)-3H-[1,2,3]triazolo[4,5-d]pyrimidin-7-yl)-3-methylpyrrolidin-3-ol]: 1.1 nM and 899 nM.
The matching figures for `CC(C)(C)c1nc(N2CC[C@@](C)(O)C2)c2nnn(Cc3ncccc3Cl)c2n1` [Example 224-b, (R)-1-(5-tert-butyl-3-((3-chloropyridin-2-yl)methyl)-3H-[1,2,3]triazolo[4,5-d]pyrimidin-7-yl)-3-methylpyrrolidin-3-ol]: 6.4 nM and greater than 10000 nM.
`Cc1nnc(Cn2nnc3c(N4CC[C@](C)(O)C4)nc(C(C)(C)C)nc32)o1` [Example 225-a, (S)-1-(5-tert-butyl-3-((5-methyl-1,3,4-oxadiazol-2-yl)methyl)-3H-[1,2,3]triazolo[4,5-d]pyrimidin-7-yl)-3-methylpyrrolidin-3-ol]: the EC50 in assay [1] (setting [3]) is 29.1 nM; in assay [2] (setting [4]) it was greater than 10000 nM.
Take `Cc1nnc(Cn2nnc3c(N4CC[C@@](C)(O)C4)nc(C(C)(C)C)nc32)o1` [Example 225-b, (R)-1-(5-tert-butyl-3-((5-methyl-1,3,4-oxadiazol-2-yl)methyl)-3H-[1,2,3]triazolo[4,5-d]pyrimidin-7-yl)-3-methylpyrrolidin-3-ol]: the figures for the EC50 in assay [1] (setting [3]) and in assay [2] (setting [4]) were 175 nM and greater than 10000 nM, respectively.
